From patent US10119972B2, “Reactive labelling compounds and uses thereof” (Academia Sinica, priority 2014, dated 2018)
“Also recorded” adds a separate entry of the source.

Key:
CL1-5 cells = assay: Live cell imaging of azido-glycoconjugates, no-wash and no-fixation; format: cell-based; conditions: for cell permeability: live CL1-5 cells, intracellular labeling
Experimental: The performance of 101 in live cell imaging was evaluated. For this purpose, highly sialylated lung cancer cells, CL1-5, were cultured in the presence of peracetylated N-azidoacetylmannosamine (Ac4ManNAz) for 3 days to metabolically produce the azido-sialic acid expressed cells. As a negative control, CL1-5 cells were grown in the presence of peracetylated N-acetylmannosamine (Ac4ManNAc). A time course experiment was conducted by exposing the cells at 30-min intervals under no-wash and no-fixation conditions (FIG. 19, FIG. 22). […] Furthermore, the localization of azido-containing glycoconjugates in living cells was visualized by confocal microscopy. The cells labeled by probe 101 were subsequently stained with anti-GRASP65 followed by FITC-conjugated anti-rabbit for Golgi and propidium iodide (PI, a nuclei marker).
Toward this goal, CL1-5 cells were incubated with Ac4ManNAz for 1 h and subsequently removed excess Ac4ManNAz. We then performed the imaging to monitor the trafficking of the sialylated glycoconjugates. […] However, the appearance of blue fluorescence signal was detected on the cell surface after 5 h. The intensity of fluorescence increased over time, and reached saturation at 8 h (FIG. 21 and FIG. 23).
To observe the fluorescence labeled azido-glycoconjugates in cells, CL1-5 cells were seeded on chamber slide (2.5×10^4 cells/0.5 mL per wells) and incubated in culture medium (RPMI-1640 supplemented with 10% FBS, 100 U/mL penicillin, 100 μg/mL streptomycin, 1 mM L-glutamine and 1 mM sodium pyruvate) with either 200 μM of control sugar (peracetylated N-acetylmannosamine, Ac4ManNAc) or azido-sugar (peracetylated N-azidoacetylmannosamine, Ac4ManNAz) for 3 days.
For Time-lapse imaging of live cells, experiments were carried out using a confocal microscope (TCS-SP5-MP-SMD, Leica) equipped with an incubator to keep the cells in culture conditions. Prewashed cells were incubated with 100 μM of probe 101 in PBS with 10% DMSO and fluorescence imaging of live cells from the previous experiment over 1.5 h. The images were acquired at 450 nm emission and in 5-min intervals.
To observe the fluorescence labeled sialylconjugates in cells dependent on different time, CL1-5 cells were seeded on chamber slide (2.5×10^4 cells/0.5 mL per wells) and incubated in culture medium (RPMI-1640 supplemented with 10% FBS, 100 U/mL penicillin, 100 μg/mL streptomycin, 1 mM L-glutamine and 1 mM sodium pyruvate) with 500 μM of azido-sugar (peracetylated N-azidoacetylmannosamine, Ac4ManNAz) for 1 h. Cells were washed three times with PBS and then incubated in culture medium. […] For fluorescence imaging of live cells, experiments were carried out using a confocal microscope (TCS-SP5-MP-SMD, Leica) equipped with an incubator to keep the cells in culture conditions.

living cells = assay: Cytotoxicity of probe in living cells; format: cell-based
[1] = SPAAC reaction kinetics of 101 with N-azidoacetylmannosamine monitored by 1H-NMR; format: physicochemical; conditions: 20 mM, CD3OD-D2O (5:1, v/v), 25° C.
Experimental: To evaluate the feasibility of compound 101 as a reagent for the SPAAC-based fluorescence labeling, its reaction scope and kinetics using benzyl azide as a model substrate was first studied. The SPAAC reaction of 101 with benzyl azide in acetonitrile was completed in 2 h at room temperature to give triazole 111 in 95% yield (Scheme 100). The reactivity of 101 with benzyl azide (1:1) in CD3CN was determined by integration of multiple chemical shifts in the ^1H-NMR spectrum to yield a second-order rate constant of 0.012 M^−1s^−1 at 25° C. […]
(§1) Part B: Compound 101 and N-azidoacetylmannosamine were predissolved in CD3OD/D2O (5:1, v/v), and then mixed at equimolar concentration of 20 mM. The reaction was monitored by ^1H-NMR analysis over a period of 1 h. The concentration of each component was determined, based on the concentration of initial compound 101, by integration at multiple chemical shifts in the ^1H-NMR spectrum. […] (M^−1) vs. time (sec), a second order rate constant in unit of M^−1s^−1 was determined using linear regression analysis. […]
FIG. 18 describes a Plot of 1/[101] vs. time for the reaction of compound 101 and N-azidoacetylmannosamine in a solution of CD3OD-D2O (5:1, v/v) as monitored by ^1H-NMR.

[2] = SPAAC reaction kinetics of 101 with benzyl azide monitored by 1H-NMR; format: physicochemical; conditions: 101 with benzyl azide (1:1), 20 mM, CD3CN, 25° C.
Experimental: To evaluate the feasibility of compound 101 as a reagent for the SPAAC-based fluorescence labeling, its reaction scope and kinetics using benzyl azide as a model substrate was first studied. The SPAAC reaction of 101 with benzyl azide in acetonitrile was completed in 2 h at room temperature to give triazole 111 in 95% yield (Scheme 100). The reactivity of 101 with benzyl azide (1:1) in CD3CN was determined by integration of multiple chemical shifts in the ^1H-NMR spectrum to yield a second-order rate constant of 0.012 M^−1s^−1 at 25° C. We also observed the cycloaddition reaction between 101 and N-azidoacetylmannosamine (ManNAz), proceeding similarly to give triazole 112 with a second-order rate constant of 0.010 M^−1s^−1 at 25° C. in a solution of CD3OD-D2O (5:1, v/v) (FIGS. 17 and 18).
as §1, with “A:” for “B:”, “benzyl azide” for “N-azidoacetylmannosamine”, “CD3CN,” for “CD3OD/D2O (5:1, v/v),”
FIG. 17 describes a Plot of 1/[101] vs. time for the reaction of compound 101 and benzyl azide in CD3CN as monitored by ^1H-NMR.

[3] = Absorption and fluorescence spectroscopy under simulated physiological conditions; format: physicochemical; conditions: PBS buffer containing 10% DMSO, pH 7.4
Experimental: Formation of triazoles 111 and 112 were accompanied by a significant increase in fluorescence intensity with a large Stokes shift into a standard range for coumarin emission (FIG. 16a).
FIG. 16 describes (a) Absorption and Fluorescence emission spectra (λex=330 nm) of 101 (black), 111 (blue) and 112 (red) (45 μM, PBS buffer containing 10% DMSO, pH 7.4). (b) Time course of normalized fluorescence intensity at 435 nm (λex=330 nm) for the ligation reaction of 101 (30 μM) with N-azidoacetylmannosamine (30 μM) in PBS buffer containing 10% DMSO.

## O=c1ccc2cc3c(cc2o1)C#CCCCC3 [Compound 101, 6,7,8,9-Tetrahydro-10,11-didehydro-cycloocta[g]chromen-2(2H)-one]
CL1-5 cells; Ac4ManNAz treated CL1-5 cells, 100 μM probe, no-wash and no-fixation
  incubation time to saturation of fluorescence intensity: 1.5 h
CL1-5 cells; control cells grown with Ac4ManNAc
  background labeling: background labeling is negligible
CL1-5 cells
  cell permeability: cell-permeable
CL1-5 cells; listed as coumOCT
  cell permeability: cell-permeable probe
Living cells
  cytotoxicity: low cytotoxicity; also recorded: nontoxic
[1]
  second-order rate constant: 0.010 M⁻¹ s⁻¹
[2]
  second-order rate constant: 0.012 M⁻¹ s⁻¹
[3]
  Absorption (λmax, nm): 336 nm
  Stokes shift: 5070 cm⁻¹
[3]; excitation at 330 nm
  Emission (λmax, nm): 405 nm
[3]; measured at 340 nm
  ε (M^−1cm^−1), extinction coefficient: 7800 M⁻¹ cm⁻¹
[3]; quinine sulfate (Φf = 0.54 ± 0.03) as standard
  Φf, fluorescence quantum yield: 0.011
